These results are taken from patent US12138243B2, “Antiviral use of FABP4 modulating compounds” (CRESCENTA BIOSCIENCES, priority 2021, dated 2024).

SMILES strings stand for the structures.

For the test, the system named is human coronavirus OC43. As to the kind of experiment: Antiviral activity: human coronavirus OC43 replication in differentiated 3T3-L1 mouse adipocyte cells, viral titers by TCID50 assay in MRC5 cells. The format is cell-based. The conditions noted are these: median fold reduction of virus titers vs vehicle control (DMSO); final compound concentration 10 µM; medium collected 24 hours after infection; differentiated 3T3-L1 adipocytes, 0.05 TCID50 per cell. As for the experimental part:
Activity of compounds affecting viral replication and disease was tested against coronavirus replication in differentiated 3T3-L1 mouse adipocyte cells using human coronavirus OC43 as a model virus. 3T3-L1 preadipocytes (ATCC) were routinely cultured in a growth medium composed of DMEM high-glucose (Sigma), 10% FBS (Gibco), 10 U/ml penicillin and 10 μg/ml streptomycin (P/S; Gibco) in a standard cell culture incubator at 37° C. To induce adipogenic differentiation, a confluent layer of 3T3-L1 cells were incubated with the growth medium containing 2 μM rosiglitazone, 1 μM dexamethasone, 500 μM IBMX, and 1 μg/ml insulin (Sigma). Forty-eight (48) hours later (on day 2) and on days 4 and 6, medium of the cells was replaced with fresh medium containing 1 μg/ml insulin. On days 8 and 10, the medium was refreshed with regular growth medium and addition of insulin was omitted. On day 11 or 12, the cells were infected with human coronavirus OC43 (ATCC) at a multiplicity of 0.05 TCID50 (tissue-culture infectious-dose 50) per cell in DMEM containing 2% heat-inactivated FBS and P/S. One hour after infection, medium of the cells were replaced with fresh medium containing either the indicated FABP4 modulating compounds or the vehicle in which the compounds were dissolved (DMSO). The final compound concentration was 10 µM and final concentration of DMSO was 0.1% (v/v). The cells were incubated at 35° C. during the course of infection and compound treatment. Twenty-four hours after infection, medium of the cells was collected, cleared by centrifugation at 2,000g for 5 minutes, and frozen at −80 degrees C. until further processing. The viral titers in the samples were determined by TCID50 assay in MRC5 cells (ATCC) using Reed-Munch method, and median fold reduction of virus titers in compound treated cells compared to vehicle control was calculated.

For `CCCCC1CCCc2c(n(Cc3cccc(C(N)=O)c3)c3c(C(=O)O)cccc23)C1` (centres unmarked) [Compound 1, 7-butyl-5-[(3-carbamoylphenyl)methyl]-5H,6H,7H,8H,9H,10H-cyclohepta[b]indole-4-carboxylic acid], the Antiviral activity group entry is reported as “B (between 10- to 99-fold)”. In the case of `CCCCC1CCCc2c(n(Cc3cccc(C#N)c3)c3c(C(=O)O)cccc23)C1` (centres unmarked) [Compound 2, 7-butyl-5-[(3-cyanophenyl)methyl]-5H,6H,7H, 8H,9H,10H-cyclohepta[b]indole-4-carboxylic acid] it was “A (reduced virus titers >100-fold)”.

For `CCCCC1CCCc2c(n(Cc3ccc(C)cc3)c3c(C(=O)O)cccc23)C1` (centres unmarked) [Compound 3, 7-butyl-5-[(4-methylphenyl)methyl]-5H,6H,7H,8H,9H,10H-cyclohepta[b]indole-4-carboxylic acid], the Antiviral activity group entry is listed as “B (between 10- to 99-fold)”.

In the case of `CCCCC1CCCc2c(n(Cc3ccccc3C)c3c(C(=O)O)cccc23)C1` (centres unmarked) [Compound 4, 7-butyl-5-[(2-methylphenyl)methyl]-5H,6H,7H,8H,9H,10H-cyclohepta[b]indole-4-carboxylic acid], the Antiviral activity group entry is “A (reduced virus titers >100-fold)”. For `CCCCCCC1CCCc2c(n(Cc3cccc(C(N)=O)c3)c3c(C(=O)O)cccc23)C1` (centres unmarked) [Compound 5, 5-[(3-carbamoylphenyl)methyl]-7-hexyl-5H,6H,7H,8H,9H,10H-cyclohepta[b]indole-4-carboxylic acid], the Antiviral activity group entry is on record as “B (between 10- to 99-fold)”. With `CCCCCCC1CCCc2c(n(Cc3cccc(C#N)c3)c3c(C(=O)O)cccc23)C1` (centres unmarked) [Compound 6, 5-[(3-cyanophenyl)methyl]-7-hexyl-5H,6H,7H,8H,9H,10H-cyclohepta[b]indole-4-carboxylic acid] the entry was “A (reduced virus titers >100-fold)”; with `CCCCCCC1CCc2c(n(Cc3cccc(C(N)=O)c3)c3c(C(=O)O)cccc23)C1` (centres unmarked) [Compound 7, 9-[(3-carbamoylphenyl)methyl]-2-hexyl-2,3,4,9-tetrahydro-1H-carbazole-8-carboxylic acid], “B (between 10- to 99-fold)”; with `CCCCCCC1CCc2c(n(Cc3cccc(C#N)c3)c3c(C(=O)O)cccc23)C1` (centres unmarked) [Compound 8, 9-[(3-cyanophenyl)methyl]-2-hexyl-2,3,4,9-tetrahydro-1H-carbazole-8-carboxylic acid], “B (between 10- to 99-fold)”. `CCCCCCC1CCc2c(n(Cc3cccnc3)c3c(C(=O)O)cccc23)C1` (centres unmarked) [Compound 9, 2-hexyl-9-[(pyridin-3-yl)methyl]-2,3,4,9-tetrahydro-1H-carbazole-8-carboxylic acid]: the Antiviral activity group entry is listed as “A (reduced virus titers >100-fold)”. With `CCCCCCC1CCc2c(n(Cc3ccccc3C)c3c(C(=O)O)cccc23)C1` (centres unmarked) [Compound 10, 2-hexyl-9-[(2-methylphenyl)methyl]-2,3,4,9-tetrahydro-1H-carbazole-8-carboxylic acid] the entry was “A (reduced virus titers >100-fold)”. Turning to `CCCCCCC1CCc2c(n(Cc3ccccc3F)c3c(C(=O)O)cccc23)C1` (centres unmarked) [Compound 11, 9-[(2-fluorophenyl)methyl]-2-hexyl-2,3,4,9-tetrahydro-1H-carbazole-8-carboxylic acid], the Antiviral activity group result is reported as “A (reduced virus titers >100-fold)”. Consider `CCCCC1CCCc2c1n(Cc1cccc(C(N)=O)c1)c1c(C(=O)O)cccc21` (centres unmarked) [Compound 12, 1-butyl-9-[(3-carbamoylphenyl)methyl]-2,3,4,9-tetrahydro-1H-carbazole-8-carboxylic acid], for which the Antiviral activity group entry is “C (between 2- to 9-fold)”. In the case of `CCCCC1CCCc2c1n(Cc1cccc(C#N)c1)c1c(C(=O)O)cccc21` (centres unmarked) [Compound 13, 1-butyl-9-[(3-cyanophenyl)methyl]-2,3,4,9-tetrahydro-1H-carbazole-8-carboxylic acid], the Antiviral activity group result is “B (between 10- to 99-fold)”. With `CCCCC1CCCCc2c1n(Cc1cccc(C(N)=O)c1)c1c(C(=O)O)cccc21` (centres unmarked) [Compound 14, 6-butyl-5-[(3-carbamoylphenyl)methyl]-5H,6H,7H,8H,9H,10H-cyclohepta[b]indole-4-carboxylic acid], the Antiviral activity group entry was “B (between 10- to 99-fold)”. With `CCCCC1CCCCc2c1n(Cc1cccc(C#N)c1)c1c(C(=O)O)cccc21` (centres unmarked) [Compound 15, 6-butyl-5-[(3-cyanophenyl)methyl]-5H,6H,7H,8H,9H,10H-cyclohepta[b]indole-4-carboxylic acid], the Antiviral activity group result was “B (between 10- to 99-fold)”. Regarding `CCCCC1CCc2c1n(Cc1cccc(C(N)=O)c1)c1c(C(=O)O)cccc21` (centres unmarked) [Compound 16, 3-butyl-4-[(3-carbamoylphenyl)methyl]-1H,2H,3H,4H-cyclopenta[b]indole-5-carboxylic acid], the Antiviral activity group entry is listed as “C (between 2- to 9-fold)”.

In the case of `CCCCC1Cc2c(n(Cc3cccc(C(N)=O)c3)c3c(C(=O)O)cccc23)C1` (centres unmarked) [Compound 17, 2-butyl-4-[(3-carbamoylphenyl)methyl]-1H,2H,3H,4H-cyclopenta[b]indole-5-carboxylic acid], the Antiviral activity group entry is “C (between 2- to 9-fold)”. In the case of `CCCCC1Cc2c(n(Cc3cccc(C#N)c3)c3c(C(=O)O)cccc23)C1` (centres unmarked) [Compound 18, 2-butyl-4-[(3-cyanophenyl)methyl]-1H,2H,3H,4H-cyclopenta[b]indole-5-carboxylic acid] it was “C (between 2- to 9-fold)”; in that of `CCCCC1CCCCc2c1c1cccc(C(=O)O)c1n2Cc1cccc(C(N)=O)c1` (centres unmarked) [Compound 19, 10-butyl-5-[(3-carbamoylphenyl)methyl]-5H,6H,7H,8H,9H,10H-cyclohepta[b]indole-4-carboxylic acid], “C (between 2- to 9-fold)”. With `CCCCC1CCc2c(c3cccc(C(=O)O)c3n2Cc2cccc(C(N)=O)c2)C1` (centres unmarked) [Compound 20, 3-butyl-9-[(3-carbamoylphenyl)methyl]-2,3,4,9-tetrahydro-1H-carbazole-8-carboxylic acid] the entry was “C (between 2- to 9-fold)”. With `CCc1c(-c2ccccc2)c(-c2ccccc2)nn1-c1ccccc1-c1cccc(OCC(=O)O)c1` [Compound 21, 2-((2′-(5-Ethyl-3,4-diphenyl-1H-pyrazol-1-yl)-[1,1′-biphenyl]-3-yl)oxy)acetic acid, reference compound] the entry was “C (between 2- to 9-fold)”. On to `Clc1ccc2nc(N3CCCCC3)c(-c3nnn[nH]3)c(-c3ccccc3)c2c1` [Compound 22, 6-chloro-4-phenyl-2-(piperidin-1-yl)-3-(1H-tetrazol-5-yl)quinoline, reference compound], for which the Antiviral activity group entry is “A (reduced virus titers >100-fold)”. Take `Cc1c(Cl)cccc1OCc1cc(=O)n2nc(-c3ccccc3)nc2[nH]1` [Compound 23, 5-((3-chloro-2-methylphenoxy)methyl)-2-phenyl-[1,2,4]triazolo[1,5-a]pyrimidin-7(4H)-one, reference compound]: the Antiviral activity group result was “B (between 10- to 99-fold)”.
